Measured values: patent US11332459B2 (TEIJIN PHARMA LIMITED, priority 2017, dated 2022)
Counter-ions that a name gives are not always drawn.

Target: T1, human TRPC6 (Homo sapiens, UniProt Q9Y210)
T1 construct: expressed in transfected cells
T1 sequence (Q9Y210 1-931): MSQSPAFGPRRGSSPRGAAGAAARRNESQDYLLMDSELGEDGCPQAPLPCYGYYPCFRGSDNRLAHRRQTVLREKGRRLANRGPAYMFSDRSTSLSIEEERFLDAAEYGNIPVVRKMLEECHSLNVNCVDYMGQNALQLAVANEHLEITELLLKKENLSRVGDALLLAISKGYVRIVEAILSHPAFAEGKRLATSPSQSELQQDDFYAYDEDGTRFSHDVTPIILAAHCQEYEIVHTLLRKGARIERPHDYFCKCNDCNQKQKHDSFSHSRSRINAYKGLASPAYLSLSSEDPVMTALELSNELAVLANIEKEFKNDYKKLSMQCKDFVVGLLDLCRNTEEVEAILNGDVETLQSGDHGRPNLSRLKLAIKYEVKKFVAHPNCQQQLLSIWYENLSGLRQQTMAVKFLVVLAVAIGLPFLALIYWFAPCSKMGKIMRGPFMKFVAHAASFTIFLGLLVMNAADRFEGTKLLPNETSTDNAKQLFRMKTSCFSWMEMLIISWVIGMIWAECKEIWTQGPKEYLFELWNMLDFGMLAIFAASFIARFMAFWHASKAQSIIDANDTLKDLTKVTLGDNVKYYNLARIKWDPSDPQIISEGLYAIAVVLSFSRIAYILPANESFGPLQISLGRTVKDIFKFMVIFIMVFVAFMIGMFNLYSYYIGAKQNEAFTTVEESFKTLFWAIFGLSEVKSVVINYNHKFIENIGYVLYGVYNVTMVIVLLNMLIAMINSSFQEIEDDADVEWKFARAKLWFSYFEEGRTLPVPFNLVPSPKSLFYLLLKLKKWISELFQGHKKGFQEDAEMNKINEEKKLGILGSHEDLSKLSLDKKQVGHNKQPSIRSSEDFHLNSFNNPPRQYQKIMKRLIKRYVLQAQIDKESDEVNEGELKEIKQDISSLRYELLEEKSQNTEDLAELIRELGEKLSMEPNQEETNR
Experiment: TRPC6 calcium flux assay (FLIPR, OAG-stimulated calcium influx)
Assay type: cell-based
Details: HEK293 cells stably transfected with human TRPC6, read-out: hTRPC6 Potency
Outline: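 HEK293 cells stably expressing human TRPC6, loaded with calcium dye 90–120 min at RT, then given compound for 25 min before OAG (50 uM final, 0.5% DMSO) in HEPES buffer pH 7.2 with 2 mM CaCl2. Background-subtracted FLIPR peak over 180 s normalized to OAG vs buffer; IC50 from dose plot.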

| SMILES | IC50 [nM] |
| --- | --- |
| CC1(C)CCCN1C(=O)Cn1c(N2CC[C@@H](F)[C@H](N)C2)nc2cc(F)c(F)cc21 [Example 310, 2-(2-((3R,4R)-3-amino-4-fluoropiperidin-1-yl)-5,6-difluoro-1H-benzo[d]imidazol-1-yl)-1-(2,2-dimethylpyrrolidin-1-yl)ethan-1-one] | 765 |
| CN(C)C(=O)Cn1c(N2CC[C@@H](F)[C@H](N)C2)nc2cc(OC(F)(F)F)ccc21 [Example 474, 2-(2-((3R,4R)-3-amino-4-fluoropiperidin-1-yl)-5-(trifluoromethoxy)-1H-benzo[d]imidazol-1-yl)-N,N-dimethylacetamide] | 411 |
| N[C@@H]1CN(c2nc3cc(F)c(F)cc3n2CC(=O)N2CCCCC2)CC[C@H]1F [Example 281, 2-(2-((3R,4R)-3-amino-4-fluoro-1-piperidinyl)-5,6-difluoro-1H-benzimidazol-1-yl)-1-(1-piperidinyl)ethanone] | 26.9 |
| CN(C)S(=O)(=O)c1ccc(Cn2c(N3CCC[C@@H](N)C3)nc3ccccc32)cc1 [Example 385, (R)-4-((2-(3-aminopiperidin-1-yl)-1H-benzo[d]imidazol-1-yl)methyl)-N,N-dimethylbenzenesulfon-amide] | > 50000 |
| Cc1nc(C)c(Cn2c(N3CC[C@@H](F)[C@H](N)C3)nc3ccc(F)cc32)s1 [Example 589, (3R,4R)-1-(1-((2,4-dimethylthiazol-5-yl)methyl)-6-fluoro-1H-benzo[d]imidazol-2-yl)-4-fluoropiperidin-3-amine] | 1010 |
| CN(C)C(=O)Cn1c(N2CC[C@@H](F)[C@H](N)C2)nc2ccc(Cl)cc21 [Example 502, 2-(2-((3R,4R)-3-amino-4-fluoropiperidin-1-yl)-6-chloro-1H-benzo[d]imidazol-1-yl)-N,N-dimethylacetamide] | 9.09 |
| N#Cc1ccc(Cn2c(N3CCC[C@H](N)C3)nc3c(Cl)cc(Cl)cc32)nc1 [Example 57, (S)-6-((2-(3-aminopiperidin-1-yl)-4,6-dichloro-1H-benzo[d]imidazol-1-yl)methyl)nicotinonitrile] | 0.784 |
| N[C@@H]1CN(c2nc3ccccc3n2Cc2ncc(F)cn2)CC[C@H]1F [Example 188, (3R,4R)-4-fluoro-1-(1-((5-fluoropyrimidin-2-yl)methyl)-1H-benzo[d]imidazol-2-yl)piperidin-3-amine] | 13 |
| CC1CN(c2nc3ccc(F)cc3n2CC(=O)N(C)CC(F)(F)F)CC1N (centres unmarked) [Example 480, 2-(2-(3-amino-4-methylpyrrolidin-1-yl)-6-fluoro-1H-benzo[d]imidazol-1-yl)-N-methyl-N-(2,2,2-trifluoroethyl)acetamide] | 1200 |
| N#Cc1ccc(Cn2c(N3CC[C@@H](F)[C@H](N)C3)nc3cc(Cl)c(OC(F)(F)F)cc32)nc1 [Example 125, 6-((2-((3R,4R)-3-amino-4-fluoro-1-piperidinyl)-5-chloro-6-(trifluoromethoxy)-1H-benzimidazol-1-yl)methyl)-3-pyridinecarbonitrile] | 0.389 |
| N[C@@H]1CN(c2nc3cc(C(F)(F)F)ccc3n2CC(=O)N2CCOCC2)CC[C@H]1F [Example 473, 2-(2-((3R,4R)-3-amino-4-fluoropiperidin-1-yl)-5-(trifluoromethyl)-1H-benzo[d]imidazol-1-yl)-1-morpholinoethan-1-one] | 398 |
| N[C@@H]1CN(c2nc3cc(F)c(F)cc3n2CC(=O)N2CCC2)CC[C@H]1F [Example 236, 2-(2-((3R,4R)-3-amino-4-fluoropiperidin-1-yl)-5,6-difluoro-1H-benzo[d]imidazol-1-yl)-1-(azetidin-1-yl)ethanone] | 23.8 |
| N[C@@H]1CN(c2nc3cc(F)c(F)cc3n2Cc2ccc(F)cn2)CCC1(F)F [Example 307, (R)-1-(5,6-difluoro-1-((5-fluoropyridin-2-yl)methyl)-1H-benzo[d]imidazol-2-yl)-4,4-difluoropiperidin-3-amine] | 376 |
| N#Cc1ccc(Cn2c(N3CC[C@@H](F)[C@H](N)C3)nc3c(C#N)cccc32)nc1 [Example 11, 2-((3R,4R)-3-amino-4-fluoropiperidin-1-yl)-1-((5-cyanopyridin-2-yl)methyl)-1H-benzo[d]imidazole-4-carbonitrile] | 1.79 |
| CC(=O)NC1CCCN(C(=O)Cn2c(N3CC[C@@H](F)[C@H](N)C3)nc3cc(F)c(F)cc32)C1 (stereo partly drawn) [Example 535, N-(1-(2-(2-((3R,4R)-3-amino-4-fluoropiperidin-1-yl)-5,6-difluoro-1H-benzo[d]imidazol-1-yl)acetyl)piperidin-3-yl)acetamide] | > 3750 |
| COc1cccc2c1nc(N1CC[C@@H](F)[C@H](N)C1)n2Cc1ccc(C#N)cc1 [Example 411, 4-((2-((3R,4R)-3-amino-4-fluoropiperidin-1-yl)-4-methoxy-1H-benzo[d]imidazol-1-yl)methyl)benzonitrile] | 2.68 |
| N#Cc1ccc(Cn2c(N3CC[C@@H](F)[C@H](N)C3)nc3cc(C(F)(F)F)ccc32)nc1 [Example 15, 6-((2-((3R,4R)-3-amino-4-fluoropiperidin-1-yl)-5-(trifluoromethyl)-1H-benzo[d]imidazol-1-yl)methyl)nicotinonitrile] | 4.39 |
| C[C@@H](c1cccc2cccnc12)n1c(N2CC[C@@H](F)[C@H](N)C2)nc2cc(F)c(F)cc21 [Example 262, (3R,4R)-1-(5,6-difluoro-1-((1S)-1-(8-quinolinyl)ethyl)-1H-benzimidazol-2-yl)-4-fluoro-3-piperidinamine] | 280 |
| N[C@@H]1CN(c2nc3cc(F)c(F)cc3n2CC(=O)N(CCO)Cc2cccnc2)CC[C@H]1F [Example 655, 2-(2-((3R,4R)-3-amino-4-fluoropiperidin-1-yl)-5,6-difluoro-1H-benzo[d]imidazol-1-yl)-N-(2-hydroxyethyl)-N-(pyridin-3-ylmethyl)acetamide] | > 3750 |
| CO[C@@H]1CCN(c2nc3ccc(F)cc3n2CC(=O)N(C)CC(F)(F)F)C[C@H]1N [Example 485, 2-(2-((3R,4R)-3-amino-4-methoxypiperidin-1-yl)-6-fluoro-1H-benzo[d]imidazol-1-yl)-N-methyl-N-(2,2,2-trifluoroethyl)acetamide] | > 3750 |
| N#Cc1ccc(Cn2c(N3CC[C@@H]4CCN[C@H]4C3)nc3ccccc32)nc1 [Example 23, 6-((2-((3aS,7aR)-hexahydro-1H-pyrrolo[2,3-c]pyridin-6(2H)-yl)-1H-benzo[d]imidazol-1-yl)methyl)nicotinonitrile] | > 3750 |
| C[C@H](c1ccccc1Cl)n1c(N2CC[C@@H](F)[C@H](N)C2)nc2cc(F)c(F)cc21 [Example 324, (3R,4R)-1-(1-((1R)-1-(2-chlorophenyl)ethyl)-5,6-difluoro-1H-benzimidazol-2-yl)-4-fluoro-3-piperidinamine] | > 3750 |
| N[C@H]1CCCN(c2nc3ccccc3n2Cc2ccc(-c3ncon3)cc2)C1 [Example 369, (S)-1-(1-(4-(1,2,4-oxadiazol-3-yl)benzyl)-1H-benzo[d]imidazol-2-yl)piperidin-3-amine] | 8.65 |
| N[C@@H]1CN(c2nc3ccc(C(F)(F)F)cc3n2Cc2ncc(F)cn2)CC[C@@H]1F [Example 305, (3R,4S)-4-fluoro-1-(1-((5-fluoropyrimidin-2-yl)methyl)-6-(trifluoromethyl)-1H-benzo[d]imidazol-2-yl)piperidin-3-amine] | 0.288 |
| CN[C@@H]1CN(c2nc3c(F)cc(F)cc3n2[C@@H](C)c2ccc(C#N)cn2)CC[C@H]1F (single isomer, unassigned) [Example 439] | 36.7 |
| Cn1ncc2c(Cn3c(N4CC[C@@H](F)[C@H](N)C4)nc4cc(F)c(F)cc43)cccc21 [Example 259, (3R,4R)-1-(5,6-difluoro-1-((1-methyl-1H-indazol-4-yl)methyl)-1H-benzimidazol-2-yl)-4-fluoro-3-piperidinamine] | 1430 |
| N[C@@H]1CN(c2nc3ccc(F)cc3n2Cc2nc(C(F)(F)F)no2)CC[C@H]1F [Example 569, (3R,4R)-4-fluoro-1-(6-fluoro-1-((3-(trifluoromethyl)-1,2,4-oxadiazol-5-yl)methyl)-1H-benzo[d]imidazol-2-yl)piperidin-3-amine] | 78.4 |
| N#Cc1ccc(Cn2c(N3CCC[C@H](N)C3)nc3cccnc32)cc1 [Example 419, (S)-4-((2-(3-aminopiperidin-1-yl)-3H-imidazo[4,5-b]pyridin-3-yl)methyl)benzonitrile hydrochloride] | 128 |
| N[C@@H]1CCCN(c2nc3ccccc3n2Cc2ccc(Cl)c(F)c2)C1 [Example 391, (R)-1-(1-(4-chloro-3-fluorobenzyl)-1H-benzo[d]imidazol-2-yl)piperidin-3-amine] | 1820 |
